Assay [1] concerns Staphylococcus epidermidis strains. Kind of assay: Antibiotic susceptibility, disk diffusion method on Mueller-Hinton agar. The format is cell-based. Particulars: all 10 Staphylococcus epidermidis strains. (In general: In agar diffusion tests the substance spreads into inoculated agar from a disc or well.)
Assay [2] has the same test system. Kind of assay: Antibacterial activity of AMPs (MIC100) and synergism (FIC index). The format is cell-based. Particulars: against Staphylococcus epidermidis strains, single agent. The protocol: (§1) Antibacterial activity of the peptides used in this work was evaluated as described previously. […] The fractional inhibitory concentration (FIC) index for combinations of two peptides was calculated according to the equation: FIC index = […] = A/MICA + B/MICB , where A and B are the MICs of drug A and drug B in the combination, MICA and MICB are the MICs of drug A and drug B alone, and FICA and FICB are the FICs of drug A and drug B. The FIC indices were interpreted as follows: ≤0.5, synergy; 0.51-4.0, no interaction; > 4.0, antagonism.

Assay [3] shares this test system. Kind of assay: % inhibition of bacterial growth by the MIX and its components. The format is cell-based. Conditions: MIX = both. The protocol:
as §1, with “antagonism. The growth inhibition percentages of Staphylococcus epidermidis and probiotic strains were assessed under the same conditions.” for “antagonism.”

Assay [4] relates to J774 cells. Kind of assay: Nitrite (NO2-) formation in J774 cells, Griess reaction. The format is cell-based, mouse. A general note: Nitrite, measured by Griess reagent, commonly stands in for NO production.
Assay [5] relates to probiotics bacteria (Lactobacillus plantarum, Lactobacillus Paracasei, Bifidobacterium animalis). Kind of assay: Antibacterial activity against probiotics bacteria, overall statement. The assay is classed as cell-based. Particulars: MIX RJI-C 9 μg/ml + TB-KK 6 μg/ml; gentamicin 5 μg/ml. The protocol:
The growth inhibition percentages of Staphylococcus epidermidis and probiotic strains were assessed under the same conditions.

The subject of assay [6] is J774 cells. Kind of assay: TNF-α, IFN-γ, IL-10 mRNA expression in J774 cells (real time PCR). The format is cell-based, mouse. Conditions: gentamicin 5 μg/ml, ASA 5 μg/ml or MIX (RJI-C 9 μg/ml + TB-KK 6 μg/ml) for 3 hours; Figure 3B.
Assay [7] has as its system Staphylococcus epidermidis (SE). Particulars: mouse, in vivo, iv.
Assay [8] has as its system SAA, haptoglobin, fibrinogen. Description: Acute phase proteins in blood of infected mice. The assay is classed as in vivo, mouse.
The next assay has as its system CD64. Particulars: mouse, in vivo.
A further assay deals with COX-2. Particulars: mouse, in vivo.
Assay [9] concerns Staphylococcus epidermidis (SE). Conditions: mouse, in vivo, iv. The source holds these as a separate data set.

“And” between values parts separate entries of the source, which are not always exact repeats. Identical values can stand only once.

For orientation: MIC means the least concentration at which growth counts as inhibited.

For the compound `C[C@@H](O)[C@H]1C(=O)N2C(C(=O)O)=C(SCCN=CN)C[C@H]12` [IPM10, imipenem], in [1], the “antibiotic resistance pattern, all strains” value (“antibiotic resistance pattern” for short) is reported as “sensitive”.
Regarding `Cc1onc(-c2ccccc2Cl)c1C(=O)N[C@@H]1C(=O)N2[C@@H]1SC(C)(C)[C@@H]2C(=O)O` [CX1, cloxacillin], in assay [1], the “antibiotic resistance pattern” value was “resistant”.
The same measure, in the same setting: the entry for bacitracin [B2] is “resistant”.
Same read-out and setting: the same measure for `Cc1ncc([N+](=O)[O-])n1CCO` [M80, metronidazole]: “resistant”.
For “PFKIDIHLGGY-NH2 [RJI-C, analogue of the royal jellein I, chemically modified at the C terminal]”, the MIC100 in assay [2] (10^5 CFU/well) stood at 30 µg/mL. Moreover, the MIC in assay [2] (value in brackets) stood at 24 µM. In addition, the “% inhibition of bacterial growth” value in assay [3] (strain 2/2, RJI-C 9 μg/ml, TB-KK 6 μg/ml) is 18 ± 1%; in [3] (strain 3/28, RJI-C 9 μg/ml (7.3 μM), TB-KK 6 μg/ml (2.6 μM)), 17 ± 2%; in assay [3] (strain 5/6, RJI-C 9 μg/ml, TB-KK 6 μg/ml), 4 ± 3%; in [3] (strain 5/8, RJI-C 9 μg/ml, TB-KK 6 μg/ml), 12 ± 2%; in assay [3] (strain 5/25, RJI-C 9 μg/ml, TB-KK 6 μg/ml), 15 ± 1%; in [3] (strain 9/1, RJI-C 9 μg/ml, TB-KK 6 μg/ml) it was 18 ± 0%. Moreover, the “% inhibition of bacterial growth” value in [3] (strain 10/28, RJI-C 9 μg/ml, TB-KK 6 μg/ml) was 0%; in [3] (strain 12/14, RJI-C 9 μg/ml, TB-KK 6 μg/ml) it was 11 ± 0.5%; in assay [3] (strain 12/26, RJI-C 9 μg/ml, TB-KK 6 μg/ml), 19 ± 2%. Also, the “NO2- synthesis in LPS-stimulated J774 cells, in words” value in the assay with J774 cells [4] is on record as “reduced NO2^- synthesis”.
In the case of `C[C@H]1[C@H](NC(=O)/C(=N\OC(C)(C)C(=O)O)c2csc(N)n2)C(=O)N1S(=O)(=O)O` [ATM30, aztreonam], the “antibiotic resistance pattern” value in assay [1] was “resistant”.
With `CNC(C)C1CCC(N)C(OC2C(N)CC(N)C(OC3OCC(C)(O)C(NC)C3O)C2O)O1` (stereo not drawn) [Gentamicin, gentamicin], the MIC in assay [2] (10^5 CFU/well) was found to be 5 µg/mL; in assay [2] (value in brackets), 10 µM. For the same compound, the “antibacterial activity against probiotics bacteria, in words” value in assay [5] is recorded as “killed the totality of the probiotics tested”. For the same compound, in the assay on J774 cells [6], the “induction of inflammation (TNF-α, IFN-γ, IL-10 mRNA) in J774 cells without LPS” value is given as “do not induce inflammation”. For the same compound, the “bacterial load of kidneys and spleens” value in assay [7] was “decreased”. Further, the SAA turned out to be 20 ± 0.8 mg/dL in assay [8] (3h after treatment, blood of mice infected with Staphylococcus epidermidis, naive 6±0.8, control 17±0.6); 18.4 ± 1.2 mg/dL in assay [8] (6h after treatment, control 19.1±0.5); 16 ± 0.7 mg/dL in assay [8] (9h after treatment, control 21.7±0.9). For the same compound, the Haptoglobin in assay [8] (6h after treatment, control 329±55.2) was 264 ± 58.3 mg/dL; in assay [8] (mouse, in vivo), 244 ± 42.5 mg/dL and 278 ± 42.9 mg/dL. Further, the Fibrinogen in assay [8] (mouse, in vivo) is 340 ± 41.0 mg/dL and 385 ± 45.2 mg/dL and 364 ± 12.6 mg/dL. In assay [8] (mouse, in vivo), the “SAA, haptoglobin and fibrinogen, in words” value is on record as “within normal ranges”. Besides, the “expression of the CD64 marker in blood” value in the assay with CD64 is on record as “decreased expression of the CD64 marker”. In addition, in the assay on COX-2, the “COX-2 expression level in kidney” value is “COX-2 expression level returned to the normal level nine hours after the treatment”. Besides, the “infection status of kidneys and spleens eleven days after the infection” value in assay [9] is recorded as “still infected”.
Take `CC(=O)Oc1ccccc1C(=O)O` [ASA, acetylsalicylic acid]: the “induction of inflammation (TNF-α, IFN-γ, IL-10 mRNA) in J774 cells without LPS” value in the assay on J774 cells [6] is reported as “do not induce inflammation”.

These data come from paper PMC3526545, “New perspectives for natural antimicrobial peptides: application as antinflammatory drugs in a murine model” (BMC Immunology, 2012).
